Test results reported in patent US8404708B2, “Dual NK1/NK3 receptor antagonists” (Hoffmann-La Roche Inc., priority 2004, dated 2013).

Experiments:
[1] = biological target: T1, Recombinant human NK3 (hNK3) receptor (Homo sapiens, UniProt P29371); test: NK3 receptor binding, [3H]SR142801 displacement, membrane preparations; settings: second value of the cell pKi NK1/NK3; hNK3 receptor, [3H]SR142801
T1 construct: expressed in transfected cells
T1 sequence (P29371 1-465): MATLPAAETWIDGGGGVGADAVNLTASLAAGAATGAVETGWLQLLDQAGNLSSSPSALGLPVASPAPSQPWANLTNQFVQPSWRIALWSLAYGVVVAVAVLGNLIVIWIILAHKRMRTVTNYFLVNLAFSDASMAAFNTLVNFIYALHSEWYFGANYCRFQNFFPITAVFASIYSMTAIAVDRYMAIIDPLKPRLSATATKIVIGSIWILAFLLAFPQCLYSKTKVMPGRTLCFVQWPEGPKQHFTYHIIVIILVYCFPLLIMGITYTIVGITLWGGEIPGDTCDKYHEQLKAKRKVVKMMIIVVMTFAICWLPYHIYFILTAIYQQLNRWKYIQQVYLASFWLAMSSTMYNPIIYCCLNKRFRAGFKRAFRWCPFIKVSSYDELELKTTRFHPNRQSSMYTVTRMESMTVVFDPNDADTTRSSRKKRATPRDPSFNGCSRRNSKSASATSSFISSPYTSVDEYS
In short: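 Buffer: Tris-HCl 50 mM pH 7.4, BSA 0.1%, MnCl2 4 mM, phosphoramidon 1 μM. ~2.5 μg membrane/well, 90 min RT. NSB with SB222200 (10 μM). Vacuum filtration over 0.3% PEI-treated GF/C, cold Tris/BSA washes, scintillation count; duplicates, ≥2 experiments.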

[2] = biological target: human NK1 receptor (Homo sapiens, UniProt P25103); test: NK1 receptor binding, [3H]substance P displacement, CHO cell membranes; settings: first value of the cell pKi NK1/NK3; human NK1 receptor, [3H]substance P
Sequence of human NK1 receptor (P25103 whole entry): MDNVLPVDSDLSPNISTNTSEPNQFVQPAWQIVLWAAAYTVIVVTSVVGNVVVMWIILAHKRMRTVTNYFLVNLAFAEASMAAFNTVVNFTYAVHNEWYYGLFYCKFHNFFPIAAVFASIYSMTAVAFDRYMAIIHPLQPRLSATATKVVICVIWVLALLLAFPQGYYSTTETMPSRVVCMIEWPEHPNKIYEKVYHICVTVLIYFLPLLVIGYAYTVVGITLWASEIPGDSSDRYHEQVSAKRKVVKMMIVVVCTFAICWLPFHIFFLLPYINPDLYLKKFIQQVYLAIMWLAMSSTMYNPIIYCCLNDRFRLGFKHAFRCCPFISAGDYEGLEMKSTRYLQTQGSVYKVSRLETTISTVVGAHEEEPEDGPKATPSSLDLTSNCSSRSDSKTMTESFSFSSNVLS

Structure (SMILES) | Ki [1] [nM] | Ki [2] [nM] | pKi NK3 [1] | pKi NK1 [2]
Cc1cc(C)cc(C(C)(C)C(=O)N(C)c2cnc(N3CCC[C@H]3CO)cc2-c2ccc(F)cc2C)c1 [Example 32, (S)-(3,5-Dimethyl-phenyl)-N-[4-(4-fluoro-2-methyl-phenyl)-6-(2-hydroxymethyl-pyrrolidin-1-yl)-pyridin-3-yl]-N-methyl-isobutyramide] |  |  | 8.52 | 8.51
Cc1cc(C)cc(C(C)(C)C(=O)N(C)c2cnc(N3C[C@H](O)C[C@H]3CO)cc2-c2ccc(F)cc2C)c1 [Example 33, (2S,4R)-2-(3,5-Dimethyl-phenyl)-N-[4-(4-fluoro-2-methyl-phenyl)-6-(4-hydroxy-2-hydroxymethyl-pyrrolidin-1-yl)-pyridin-3-yl]-N-methyl-isobutyramide] | 3.02 | 1.17 |  | 
CN(C(=O)C(C)(C)c1cc(Cl)cc(OC(F)F)c1)c1cnc(N2CCC[C@H]2CO)cc1-c1ccccc1Cl [Example 34, (S)-2-(3-Chloro-5-difluoromethoxy-phenyl)-N-[4-(2-chloro-phenyl)-6-(2-hydroxymethyl-pyrrolidin-1-yl)-pyridin-3-yl]-N-methyl-isobutyramide] | 0.832 | 3.89 |  | 
CN(C(=O)C(C)(C)c1cc(Cl)cc(OC(F)F)c1)c1cnc(N2C[C@H](O)C[C@H]2CO)cc1-c1ccccc1Cl [Example 35, (2S,4R)-2-(3-Chloro-5-difluoromethoxy-phenyl)-N-[4-(2-chloro-phenyl)-6-(4-hydroxy-2-hydroxymethyl-pyrrolidin-1-yl)-pyridin-3-yl]-N-methyl-isobutyramide] | 0.55 | 1.95 |  | 
Cc1ccccc1-c1cc(N2CCC[C@H]2CO)ncc1N(C)C(=O)C(C)(C)c1cc(Cl)cc(OC(F)F)c1 [Example 36, (S)-2-(3-Chloro-5-difluoromethoxy-phenyl)-N-[6-(2-hydroxymethyl-pyrrolidin-1-yl)-4-o-tolyl-pyridin-3-yl]-N-methyl-isobutyramide] | 0.708 | 4.27 |  | 
Cc1ccccc1-c1cc(N2C[C@H](O)C[C@H]2CO)ncc1N(C)C(=O)C(C)(C)c1cc(Cl)cc(OC(F)F)c1 [Example 37, (2S,4R)-2-(3-Chloro-5-difluoromethoxy-phenyl)-N-[6-(4-hydroxy-2-hydroxymethyl-pyrrolidin-1-yl)-4-o-tolyl-pyridin-3-yl]-N-methyl-isobutyramide] | 0.617 | 1.2 |  | 
Cc1cc(F)ccc1-c1cc(N2CCC[C@H]2CO)ncc1N(C)C(=O)C(C)(C)c1cc(Cl)cc(OC(F)F)c1 [Example 38, (S)-2-(3-Chloro-5-difluoromethoxy-phenyl)-N-[4-(4-fluoro-2-methyl-phenyl)-6-(2-hydroxymethyl-pyrrolidin-1-yl)-pyridin-3-yl]-N-methyl-isobutyramide] | 2.24 | 3.55 |  | 
Cc1cc(F)ccc1-c1cc(N2C[C@H](O)C[C@H]2CO)ncc1N(C)C(=O)C(C)(C)c1cc(Cl)cc(OC(F)F)c1 [Example 39, (2S,4R)-2-(3-Chloro-5-difluoromethoxy-phenyl)-N-[4-(4-fluoro-2-methyl-phenyl)-6-(4-hydroxy-2-hydroxymethyl-pyrrolidin-1-yl)-pyridin-3-yl]-N-methyl-isobutyramide] | 1.29 | 1.05 |  | 
CC(=O)N[C@H]1C[C@@H](CO)N(c2cc(-c3ccccc3Cl)c(N(C)C(=O)C(C)(C)c3cc(C(F)(F)F)cc(C(F)(F)F)c3)cn2)C1 [Example 40, (2S,4S)-N-[6-(4-Acetylamino-2-hydroxymethyl-pyrrolidin-1-yl)-4-(2-chloro-phenyl)-pyridin-3-yl]-2-(3,5-bis-trifluoromethyl-phenyl)-N-methyl-isobutyramide] | 1.02 | 0.646 |  | 
CN(C(=O)C(C)(C)c1cc(C(F)(F)F)cc(C(F)(F)F)c1)c1cnc(N2CCC[C@@H]2CO)cc1-c1ccccc1Cl [Example 41, (R)-2-(3,5-Bis-trifluoromethyl-phenyl)-N-[4-(2-chloro-phenyl)-6-(2-hydroxymethyl-pyrrolidin-1-yl)-pyridin-3-yl]-N-methyl-isobutyramide] | 7.59 | 1.07 |  | 
CN(C(=O)C(C)(C)c1cc(C(F)(F)F)cc(C(F)(F)F)c1)c1cnc(N2CCC[C@H]2CO)cc1-c1ccccc1Cl [Example 42, (S)-2-(3,5-Bis-trifluoromethyl-phenyl)-N-[4-(2-chloro-phenyl)-6-(2-hydroxymethyl-pyrrolidin-1-yl)-pyridin-3-yl]-N-methyl-isobutyramide] | 0.832 | 1.66 |  | 
CC(=O)N[C@H]1CCN(c2cc(-c3ccccc3Cl)c(N(C)C(=O)C(C)(C)c3cc(C(F)(F)F)cc(C(F)(F)F)c3)cn2)C1 [Example 43, (S)-N-[6-(3-Acetylamino-pyrrolidin-1-yl)-4-(2-chloro-phenyl)-pyridin-3-yl]-2-(3,5-bis-trifluoromethyl-phenyl)-N-methyl-isobutyramide] | 35.5 | 2.4 |  | 
CC(=O)N[C@@H]1CCN(c2cc(-c3ccccc3Cl)c(N(C)C(=O)C(C)(C)c3cc(C(F)(F)F)cc(C(F)(F)F)c3)cn2)C1 [Example 44, (R)-N-[6-(3-Acetylamino-pyrrolidin-1-yl)-4-(2-chloro-phenyl)-pyridin-3-yl]-2-(3,5-bis-trifluoromethyl-phenyl)-N-methyl-isobutyramide] | 15.5 | 0.631 |  | 
CN(C(=O)C(C)(C)c1cc(C(F)(F)F)cc(C(F)(F)F)c1)c1cnc(N2CC[C@H](O)C2)cc1-c1ccccc1Cl [Example 46, (S)-2-(3,5-Bis-trifluoromethyl-phenyl)-N-[4-(2-chloro-phenyl)-6-(3-hydroxy-pyrrolidin-1-yl)-pyridin-3-yl]-N-methyl-isobutyramide] | 8.71 | 0.603 |  | 
CN(C(=O)C(C)(C)c1cc(C(F)(F)F)cc(C(F)(F)F)c1)c1cnc(N2CC[C@@H](O)C2)cc1-c1ccccc1Cl [Example 47, (R)-2-(3,5-Bis-trifluoromethyl-phenyl)-N-[4-(2-chloro-phenyl)-6-(3-hydroxy-pyrrolidin-1-yl)-pyridin-3-yl]-N-methyl-isobutyramide] | 6.31 | 1.95 |  | 

Continued, in another order:

Ki [1] [nM] | Ki [2] [nM] | Structure (SMILES) | pKi NK3 [1] | pKi NK1 [2]
8.71 | 0.537 | CN(C(=O)C(C)(C)c1cc(C(F)(F)F)cc(C(F)(F)F)c1)c1cnc(N2C[C@@H](O)[C@@H](O)C2)cc1-c1ccccc1Cl [Example 48, (3R,4S)-2-(3,5-Bis-trifluoromethyl-phenyl)-N-[4-(2-chloro-phenyl)-6-(3,4-dihydroxy-pyrrolidin-1-yl)-pyridin-3-yl]-N-methyl-isobutyramide] |  | 
14.8 | 0.479 | CN(C(=O)C(C)(C)c1cc(C(F)(F)F)cc(C(F)(F)F)c1)c1cnc(N2C[C@@H](O)[C@H](O)C2)cc1-c1ccccc1Cl [Example 49, (3R,4R)-2-(3,5-Bis-trifluoromethyl-phenyl)-N-[4-(2-chloro-phenyl)-6-(3,4-dihydroxy-pyrrolidin-1-yl)-pyridin-3-yl]-N-methyl-isobutyramide] |  | 
28.8 | 0.646 | CN(C(=O)C(C)(C)c1cc(C(F)(F)F)cc(C(F)(F)F)c1)c1cnc(N2CCC(O)CC2)cc1-c1ccccc1Cl [Example 51, 2-(3,5-bis-trifluoromethyl-phenyl)-N-[4′-(2-chloro-phenyl)-4-hydroxy-3,4,5,6-tetrahydro-2H-[1,2′]bipyridinyl-5′-yl]-N-methyl-isobutyramide] |  | 
7.94 | 1.1 | CN(C(=O)C(C)(C)c1cc(C(F)(F)F)cc(C(F)(F)F)c1)c1cnc(N2CCC(CO)CC2)cc1-c1ccccc1Cl [Example 52, 2-(3,5-Bis-trifluoromethyl-phenyl)-N-[4′-(2-chloro-phenyl)-4-hydroxymethyl-3,4,5,6-tetrahydro-2H-[1,2′]bipyridinyl-5′-yl]-N-methyl-isobutyramide] |  | 
2.69 | 1 | CN(CCO)c1cc(-c2ccccc2Cl)c(N(C)C(=O)C(C)(C)c2cc(C(F)(F)F)cc(C(F)(F)F)c2)cn1 [Example 54, 2-(3,5-Bis-trifluoromethyl-phenyl)-N-{4-(2-chloro-phenyl)-6-[(2-hydroxy-ethyl)-methyl-amino]-pyridin-3-yl}-N-methyl-isobutyramide] |  | 
11.2 | 3.31 | CCN(CCO)c1cc(-c2ccccc2Cl)c(N(C)C(=O)C(C)(C)c2cc(C(F)(F)F)cc(C(F)(F)F)c2)cn1 [Example 55, 2-(3,5-Bis-trifluoromethyl-phenyl)-N-{4-(2-chloro-phenyl)-6-[ethyl-(2-hydroxy-ethyl)-amino]-pyridin-3-yl}-N-methyl-isobutyramide] |  | 
5.25 | 4.57 | CCCN(CCO)c1cc(-c2ccccc2Cl)c(N(C)C(=O)C(C)(C)c2cc(C(F)(F)F)cc(C(F)(F)F)c2)cn1 [Example 56, 2-(3,5-Bis-trifluoromethyl-phenyl)-N-{4-(2-chloro-phenyl)-6-[(2-hydroxy-ethyl)-propyl-amino]-pyridin-3-yl}-N-methyl-isobutyramide] |  | 
27.5 | 10 | CCCCN(CCO)c1cc(-c2ccccc2Cl)c(N(C)C(=O)C(C)(C)c2cc(C(F)(F)F)cc(C(F)(F)F)c2)cn1 [Example 57, 2-(3,5-Bis-trifluoromethyl-phenyl)-N-[6-[butyl-(2-hydroxy-ethyl)-amino]-4-(2-chloro-phenyl)-pyridin-3-yl]-N-methyl-isobutyramide] |  | 
